Results reported in patent publication US20240158446A1, “CYCLIC COMPOUND HAVING SELECTIVE INHIBITORY ACTION ON KRAS OVER HRAS AND NRAS” (CHUGAI SEIYAKU KABUSHIKI KAISHA, priority 2021, published 2024).

Legend:
[1] = target: GDP-bound KRAS wild-type protein (Homo sapiens, UniProt P01116); assay: Binding to KRAS by surface plasmon resonance (SPR), Single Cycle Kinetics; conditions: SPR, Single Cycle Kinetics, GDP-bound KRAS wild-type protein; read-out: KRAS KD
[2] = target: GDP-bound NRAS wild-type protein (Homo sapiens, UniProt P01111); assay: Binding to NRAS by surface plasmon resonance (SPR), Single Cycle Kinetics; conditions: SPR, GDP-bound NRAS wild-type protein vs GDP-bound KRAS wild-type protein
[3] = target: GDP-bound HRAS wild-type protein (Homo sapiens, UniProt P01112); assay: Binding to HRAS by surface plasmon resonance (SPR), Single Cycle Kinetics; conditions: SPR, GDP-bound HRAS wild-type protein vs GDP-bound KRAS wild-type protein
[4] = tested on: human lung cancer strain NCI-H441;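 further: cell proliferation inhibition after four days measured by CellTiter-Glo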

Chain of GDP-bound KRAS wild-type protein (P01116 whole entry): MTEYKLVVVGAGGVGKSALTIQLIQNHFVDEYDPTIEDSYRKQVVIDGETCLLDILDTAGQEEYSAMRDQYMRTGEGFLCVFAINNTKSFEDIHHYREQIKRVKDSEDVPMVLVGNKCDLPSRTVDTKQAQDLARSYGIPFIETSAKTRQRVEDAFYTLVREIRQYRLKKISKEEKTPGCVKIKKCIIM
Chain of GDP-bound NRAS wild-type protein (P01111 whole entry): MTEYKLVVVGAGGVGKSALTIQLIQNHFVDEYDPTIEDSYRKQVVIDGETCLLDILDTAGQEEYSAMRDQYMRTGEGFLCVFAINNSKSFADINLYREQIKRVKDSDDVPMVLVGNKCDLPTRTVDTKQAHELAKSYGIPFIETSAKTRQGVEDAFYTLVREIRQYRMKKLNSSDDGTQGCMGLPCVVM
Chain of GDP-bound HRAS wild-type protein (P01112 whole entry): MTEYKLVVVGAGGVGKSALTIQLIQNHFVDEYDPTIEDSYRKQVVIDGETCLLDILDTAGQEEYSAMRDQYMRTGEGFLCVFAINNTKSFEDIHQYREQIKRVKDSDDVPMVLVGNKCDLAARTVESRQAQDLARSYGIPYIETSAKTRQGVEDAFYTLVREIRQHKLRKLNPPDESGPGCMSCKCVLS

Row | Compound | Kd [1] | NRAS/KRAS (ratio of KD value for NRAS to KD value for KRAS) [2] | HRAS/KRAS (ratio of KD value for HRAS to KD value for KRAS) [3] | IC50 [4]
1 | CCCOC[C@H]1C(=O)N[C@@H]([C@@H](C)CC)C(=O)N2CCC[C@H]2C(=O)N(C)[C@H]2C/C=C\CCN(C2=O)[C@@H](Cc2ccc(C)cc2)C(=O)N(C)CC(=O)N[C@@H](CCc2ccc(C(F)(F)F)c(OC)c2)C(=O)N2C[C@@H](C)C[C@H]2C(=O)N(C)C2(CCC2)C(=O)N(C)[C@@H](C2CCCC2)C(=O)N(C)[C@H](C(=O)N(C)C)CC(=O)N1C [PP2369] | 0.062 nM | A (a compound having 10 or more and less than 20 is denoted as A) | B (a compound having 3 or more and less than 10 is denoted as B) | 4.5 nM
2 | CCC[C@H]1C(=O)N[C@@H]([C@@H](C)CC)C(=O)N(C)CC(=O)N(C)[C@H]2C/C=C\CCN(C2=O)[C@@H](CC2CCCCC2)C(=O)N(C)CC(=O)N[C@@H](CCc2ccc(C(F)(F)F)c(OC)c2)C(=O)N2C[C@@H](C)C[C@H]2C(=O)N(C)C2(CCC2)C(=O)N(C)[C@@H](C2CCCC2)C(=O)N(C)[C@H](C(=O)N(C)C)CC(=O)N1C [PP2370] | 0.54 nM | B (a compound having 3 or more and less than 10 is denoted as B) | B (a compound having 3 or more and less than 10 is denoted as B) | 25.7 nM
3 | CCOC[C@H]1C(=O)N[C@@H]([C@@H](C)CC)C(=O)N(C)CC(=O)N(C)[C@H]2C/C=C\CCN(C2=O)[C@@H](CC2CCCCC2)C(=O)N(C)CC(=O)N[C@@H](CCc2ccc(C(F)(F)F)c(OC)c2)C(=O)N2C[C@@H](C)C[C@H]2C(=O)N(C)C2(CCC2)C(=O)N(C)[C@@H](C2CCCC2)C(=O)N(C)[C@H](C(=O)N(C)C)CC(=O)N1C [PP2371] | 0.64 nM | A (a compound having 10 or more and less than 20 is denoted as A) | B (a compound having 3 or more and less than 10 is denoted as B) | 41.9 nM
4 | CCC[C@H]1C(=O)N[C@@H]([C@@H](C)CC)C(=O)N(C2CC2)CC(=O)N(C)[C@H]2C/C=C\CCN(C2=O)[C@@H](CC2CCCCC2)C(=O)N(C)CC(=O)N[C@@H](CCc2ccc(C(F)(F)F)c(OC)c2)C(=O)N2C[C@@H](C)C[C@H]2C(=O)N(C)C2(CCC2)C(=O)N(C)[C@@H](C2CCCC2)C(=O)N(C)[C@H](C(=O)N(C)C)CC(=O)N1C [PP2372] | 0.79 nM | A (a compound having 10 or more and less than 20 is denoted as A) | B (a compound having 3 or more and less than 10 is denoted as B) | 3.3 nM
5 | CCOC[C@H]1C(=O)N[C@@H]([C@@H](C)CC)C(=O)N(C2CC2)CC(=O)N(C)[C@H]2C/C=C\CCN(C2=O)[C@@H](CC2CCCCC2)C(=O)N(C)CC(=O)N[C@@H](CCc2ccc(C(F)(F)F)c(OC)c2)C(=O)N2C[C@@H](C)C[C@H]2C(=O)N(C)C2(CCC2)C(=O)N(C)[C@@H](C2CCCC2)C(=O)N(C)[C@H](C(=O)N(C)C)CC(=O)N1C [PP2373] | 0.66 nM | A (a compound having 10 or more and less than 20 is denoted as A) | A (a compound having 10 or more and less than 20 is denoted as A) | 6.5 nM
6 | CCC[C@H]1C(=O)N[C@@H]([C@@H](C)CC)C(=O)N2CCC[C@H]2C(=O)N(C)[C@H]2C/C=C\CCN(C2=O)[C@@H](CC2CCCCC2)C(=O)N(C)CC(=O)N[C@@H](CCc2ccc(C(F)(F)F)c(OC)c2)C(=O)N2C[C@@H](C)C[C@H]2C(=O)N(C)C2(CCC2)C(=O)N(C)[C@@H](C2CCCC2)C(=O)N(C)[C@H](C(=O)N(C)C)CC(=O)N1C [PP2374] | 0.85 nM | A (a compound having 10 or more and less than 20 is denoted as A) | A (a compound having 10 or more and less than 20 is denoted as A) | 67.2 nM
7 | CCOC[C@H]1C(=O)N[C@@H]([C@@H](C)CC)C(=O)N2CCC[C@H]2C(=O)N(C)[C@H]2C/C=C\CCN(C2=O)[C@@H](CC2CCCCC2)C(=O)N(C)CC(=O)N[C@@H](CCc2ccc(C(F)(F)F)c(OC)c2)C(=O)N2C[C@@H](C)C[C@H]2C(=O)N(C)C2(CCC2)C(=O)N(C)[C@@H](C2CCCC2)C(=O)N(C)[C@H](C(=O)N(C)C)CC(=O)N1C [PP2375] | 1.1 nM | A (a compound having 10 or more and less than 20 is denoted as A) | B (a compound having 3 or more and less than 10 is denoted as B) | 172 nM
8 | CCC[C@H]1C(=O)N[C@@H]([C@@H](C)CC)C(=O)N(C)CC(=O)N(C)[C@H]2C/C=C\CCN(C2=O)[C@@H](CC2CCC(F)(F)CC2)C(=O)N(C)CC(=O)N[C@@H](CCc2ccc(C(F)(F)F)c(OC)c2)C(=O)N2C[C@@H](C)C[C@H]2C(=O)N(C)C2(CCC2)C(=O)N(C)[C@@H](C2CCCC2)C(=O)N(C)[C@H](C(=O)N(C)C)CC(=O)N1C [PP2376] | 0.28 nM | A (a compound having 10 or more and less than 20 is denoted as A) | A (a compound having 10 or more and less than 20 is denoted as A) | 4.8 nM
9 | CCCOC[C@H]1C(=O)N[C@@H]([C@@H](C)CC)C(=O)N(C)CC(=O)N(C)[C@H]2C/C=C\CCN(C2=O)[C@@H](CC2CCC(F)(F)CC2)C(=O)N(C)CC(=O)N[C@@H](CCc2ccc(C(F)(F)F)c(OC)c2)C(=O)N2C[C@@H](C)C[C@H]2C(=O)N(C)C2(CCC2)C(=O)N(C)[C@@H](C2CCCC2)C(=O)N(C)[C@H](C(=O)N(C)C)CC(=O)N1C [PP2377] | 0.32 nM | A (a compound having 10 or more and less than 20 is denoted as A) | A (a compound having 10 or more and less than 20 is denoted as A) | 5.7 nM
10 | CCC[C@H]1C(=O)N[C@@H]([C@@H](C)CC)C(=O)N(C2CC2)CC(=O)N(C)[C@H]2C/C=C\CCN(C2=O)[C@@H](CC2CCC(F)(F)CC2)C(=O)N(C)CC(=O)N[C@@H](CCc2ccc(C(F)(F)F)c(OC)c2)C(=O)N2C[C@@H](C)C[C@H]2C(=O)N(C)C2(CCC2)C(=O)N(C)[C@@H](C2CCCC2)C(=O)N(C)[C@H](C(=O)N(C)C)CC(=O)N1C [PP2378] | 0.88 nM | B (a compound having 3 or more and less than 10 is denoted as B) | A (a compound having 10 or more and less than 20 is denoted as A) | 48.3 nM
11 | CCCOC[C@H]1C(=O)N[C@@H]([C@@H](C)CC)C(=O)N(C2CC2)CC(=O)N(C)[C@H]2C/C=C\CCN(C2=O)[C@@H](CC2CCC(F)(F)CC2)C(=O)N(C)CC(=O)N[C@@H](CCc2ccc(C(F)(F)F)c(OC)c2)C(=O)N2C[C@@H](C)C[C@H]2C(=O)N(C)C2(CCC2)C(=O)N(C)[C@@H](C2CCCC2)C(=O)N(C)[C@H](C(=O)N(C)C)CC(=O)N1C [PP2379] | 0.76 nM | A (a compound having 10 or more and less than 20 is denoted as A) | A (a compound having 10 or more and less than 20 is denoted as A) | 2.2 nM
12 | CCC[C@H]1C(=O)N[C@@H]([C@@H](C)CC)C(=O)N2CCC[C@H]2C(=O)N(C)[C@H]2C/C=C\CCN(C2=O)[C@@H](CC2CCC(F)(F)CC2)C(=O)N(C)CC(=O)N[C@@H](CCc2ccc(C(F)(F)F)c(OC)c2)C(=O)N2C[C@@H](C)C[C@H]2C(=O)N(C)C2(CCC2)C(=O)N(C)[C@@H](C2CCCC2)C(=O)N(C)[C@H](C(=O)N(C)C)CC(=O)N1C [PP2380] | 0.85 nM | A (a compound having 10 or more and less than 20 is denoted as A) | A (a compound having 10 or more and less than 20 is denoted as A) | 2.1 nM
13 | CCCOC[C@H]1C(=O)N[C@@H]([C@@H](C)CC)C(=O)N2CCC[C@H]2C(=O)N(C)[C@H]2C/C=C\CCN(C2=O)[C@@H](CC2CCC(F)(F)CC2)C(=O)N(C)CC(=O)N[C@@H](CCc2ccc(C(F)(F)F)c(OC)c2)C(=O)N2C[C@@H](C)C[C@H]2C(=O)N(C)C2(CCC2)C(=O)N(C)[C@@H](C2CCCC2)C(=O)N(C)[C@H](C(=O)N(C)C)CC(=O)N1C [PP2381] | 0.93 nM | A (a compound having 10 or more and less than 20 is denoted as A) | A (a compound having 10 or more and less than 20 is denoted as A) | 3.2 nM
14 | CCC[C@H]1C(=O)N[C@@H]([C@@H](C)CC)C(=O)N(C)CC(=O)N(C)[C@H]2C/C=C\CCN(C2=O)[C@@H](Cc2ccc(C(F)(F)F)cc2)C(=O)N(C)CC(=O)N[C@@H](CCc2ccc(C(F)(F)F)c(OC)c2)C(=O)N2C[C@H](OCC)C[C@H]2C(=O)N(C)C2(CCC2)C(=O)N(C)[C@@H](C(CC)CC)C(=O)N(C)[C@H](C(=O)N(C)C)CC(=O)N1C [PP2382] | 0.12 nM | A (a compound having 10 or more and less than 20 is denoted as A) | A (a compound having 10 or more and less than 20 is denoted as A) | 4.6 nM
